Laboratory results as given in ChEMBL document CHEMBL4002601, “A triple exon-skipping luciferase reporter assay identifies a new CLK inhibitor pharmacophore” (Bioorg Med Chem Lett, 2017).
Activity calls are given as the source filed them. The rule behind the calls is not given here.

Columns and labels:
[1] = biological target: T1, Dual specificity protein kinase CLK1 (Homo sapiens, UniProt P49759); test: Inhibition of CLK mediated SF3B1 activation in human SK-MEL-2 cells assessed as MDM2-pre mRNA exon skipping after 4 hrs by luciferase reporter gene assay relative to control; type: cell-based
Target sequence in this assay (P49759 whole entry): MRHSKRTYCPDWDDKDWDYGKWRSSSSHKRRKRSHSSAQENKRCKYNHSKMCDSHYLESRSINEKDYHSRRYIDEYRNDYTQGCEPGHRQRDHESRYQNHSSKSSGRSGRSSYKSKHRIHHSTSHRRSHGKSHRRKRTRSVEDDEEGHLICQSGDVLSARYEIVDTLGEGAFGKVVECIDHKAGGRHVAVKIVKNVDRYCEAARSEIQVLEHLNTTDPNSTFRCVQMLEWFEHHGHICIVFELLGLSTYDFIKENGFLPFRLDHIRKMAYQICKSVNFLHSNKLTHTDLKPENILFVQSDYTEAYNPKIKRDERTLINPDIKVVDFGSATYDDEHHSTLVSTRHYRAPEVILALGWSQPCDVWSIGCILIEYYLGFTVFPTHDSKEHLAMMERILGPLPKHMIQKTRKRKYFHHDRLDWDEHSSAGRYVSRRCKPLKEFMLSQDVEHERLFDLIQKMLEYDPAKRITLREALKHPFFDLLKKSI

[2] = biological target: T1, Dual specificity protein kinase CLK1; test: Inhibition of CLK mediated SF3B1 activation in human SK-MEL-2 cells assessed as MDM2-pre mRNA exon skipping at 10 uM after 4 hrs by luciferase reporter gene assay relative to control; type: cell-based; set-up: Activity: scale not given: the % may be the effect or the level left
Target sequence in this assay (P49759 whole entry, looked up): as the sequence (P49759 whole entry) above

[3] = Solubility of the compound; type: physicochemical
[4] = biological target: T1, Dual specificity protein kinase CLK1; test: Inhibition of CLK mediated SF3B1 activation in human HeLa cells assessed as MDM2-pre mRNA exon skipping by luciferase reporter gene assay; type: cell-based
Target sequence in this assay (P49759 whole entry): as above

[5] = biological target: T1, Dual specificity protein kinase CLK1; test: Inhibition of human CLK1 using substrate ERMRPRKRQGSVRRRV in presence of [gamma-33P]ATP after 40 mins by scintillation counter method
Target sequence in this assay (P49759 whole entry): as above

[6] = biological target: Dual specificity protein kinase CLK2 (Homo sapiens, UniProt P49760); test: Inhibition of human CLK2 using YRRAAVPPSPSLSRHSSPHQS(p)EDEEE as substrate in presence of [gamma-33P]ATP after 40 mins by scintillation counter method
Chain of Dual specificity protein kinase CLK2 (P49760 whole entry): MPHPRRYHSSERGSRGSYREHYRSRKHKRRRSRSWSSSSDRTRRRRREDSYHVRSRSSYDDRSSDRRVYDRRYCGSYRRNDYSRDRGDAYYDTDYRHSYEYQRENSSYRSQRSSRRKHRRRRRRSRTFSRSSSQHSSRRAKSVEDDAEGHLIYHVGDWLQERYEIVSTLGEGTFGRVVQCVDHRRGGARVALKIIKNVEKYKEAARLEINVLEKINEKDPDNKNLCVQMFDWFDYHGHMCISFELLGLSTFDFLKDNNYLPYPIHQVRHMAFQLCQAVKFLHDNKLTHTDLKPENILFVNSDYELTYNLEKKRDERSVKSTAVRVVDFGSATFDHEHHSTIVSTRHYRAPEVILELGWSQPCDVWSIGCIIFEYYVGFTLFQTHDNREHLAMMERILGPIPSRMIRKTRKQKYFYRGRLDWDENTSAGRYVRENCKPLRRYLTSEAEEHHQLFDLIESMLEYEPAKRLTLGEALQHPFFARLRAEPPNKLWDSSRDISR

[7] = biological target: Dual specificity protein kinase CLK4 (Homo sapiens, UniProt Q9HAZ1); test: Inhibition of human CLK4 using YRRAAVPPSPSLSRHSSPHQS(p)EDEEE as substrate in presence of [gamma-33P]ATP after 40 mins by scintillation counter method
Chain of Dual specificity protein kinase CLK4 (Q9HAZ1 whole entry): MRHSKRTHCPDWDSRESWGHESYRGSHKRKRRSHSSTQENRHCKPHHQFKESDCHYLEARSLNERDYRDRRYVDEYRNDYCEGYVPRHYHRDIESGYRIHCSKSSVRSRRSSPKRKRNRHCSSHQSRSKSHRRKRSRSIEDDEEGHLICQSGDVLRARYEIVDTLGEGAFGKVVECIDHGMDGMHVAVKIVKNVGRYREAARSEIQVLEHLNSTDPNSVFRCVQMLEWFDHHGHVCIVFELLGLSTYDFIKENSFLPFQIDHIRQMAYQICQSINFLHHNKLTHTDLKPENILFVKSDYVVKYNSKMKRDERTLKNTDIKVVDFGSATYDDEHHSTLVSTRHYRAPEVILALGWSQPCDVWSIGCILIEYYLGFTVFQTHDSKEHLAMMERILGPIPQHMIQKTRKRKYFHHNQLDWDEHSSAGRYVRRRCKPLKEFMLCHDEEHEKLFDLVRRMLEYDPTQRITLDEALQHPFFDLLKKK

[8] = biological target: CDK4/Cyclin D3 (Homo sapiens, UniProt P11802); test: (§1) Inhibition of human CDK4/cyclinD3 using Histone H1 as substrate in presence of [gamma-33P]ATP after 40 mins by scintillation counter method; type: protein-complex assay
Chain of CDK4/Cyclin D3 (Homo sapiens, UniProt P11802) (P11802 whole entry): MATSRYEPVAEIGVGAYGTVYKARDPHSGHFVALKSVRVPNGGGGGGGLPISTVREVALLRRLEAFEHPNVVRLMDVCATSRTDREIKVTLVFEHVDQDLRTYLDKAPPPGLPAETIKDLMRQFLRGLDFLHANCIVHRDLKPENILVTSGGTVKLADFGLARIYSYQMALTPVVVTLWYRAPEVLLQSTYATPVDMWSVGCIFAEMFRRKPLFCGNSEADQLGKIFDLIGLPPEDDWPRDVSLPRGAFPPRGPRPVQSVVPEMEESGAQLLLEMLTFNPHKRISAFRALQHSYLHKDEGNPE
Chain of CDK4/Cyclin D3 (Homo sapiens, UniProt P11802) (P30281 whole entry, further chain): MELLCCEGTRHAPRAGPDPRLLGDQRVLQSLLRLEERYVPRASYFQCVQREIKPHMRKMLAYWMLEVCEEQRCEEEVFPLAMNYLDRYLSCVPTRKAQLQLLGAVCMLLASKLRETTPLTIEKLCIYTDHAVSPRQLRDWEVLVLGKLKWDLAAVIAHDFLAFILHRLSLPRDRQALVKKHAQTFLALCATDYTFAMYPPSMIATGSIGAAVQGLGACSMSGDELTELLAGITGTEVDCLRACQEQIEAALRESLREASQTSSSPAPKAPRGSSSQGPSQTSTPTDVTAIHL

[9] = biological target: Cyclin-dependent kinase 1/cyclin B1 (Homo sapiens, UniProt P06493); test: Inhibition of human CDK1/cyclinB using Histone H1 as substrate in presence of [gamma-33P]ATP after 40 mins by scintillation counter method; type: protein-complex assay
Chain of Cyclin-dependent kinase 1/cyclin B1 (P06493 whole entry): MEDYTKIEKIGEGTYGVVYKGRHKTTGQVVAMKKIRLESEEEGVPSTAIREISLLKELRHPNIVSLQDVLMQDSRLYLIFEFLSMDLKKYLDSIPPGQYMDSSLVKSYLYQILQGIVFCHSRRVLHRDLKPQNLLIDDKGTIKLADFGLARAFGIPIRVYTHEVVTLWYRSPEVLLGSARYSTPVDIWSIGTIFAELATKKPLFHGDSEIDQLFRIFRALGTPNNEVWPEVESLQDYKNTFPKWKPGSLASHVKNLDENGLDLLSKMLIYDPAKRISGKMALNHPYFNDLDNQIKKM
Chain of Cyclin-dependent kinase 1/cyclin B1 (P14635 whole entry, further chain): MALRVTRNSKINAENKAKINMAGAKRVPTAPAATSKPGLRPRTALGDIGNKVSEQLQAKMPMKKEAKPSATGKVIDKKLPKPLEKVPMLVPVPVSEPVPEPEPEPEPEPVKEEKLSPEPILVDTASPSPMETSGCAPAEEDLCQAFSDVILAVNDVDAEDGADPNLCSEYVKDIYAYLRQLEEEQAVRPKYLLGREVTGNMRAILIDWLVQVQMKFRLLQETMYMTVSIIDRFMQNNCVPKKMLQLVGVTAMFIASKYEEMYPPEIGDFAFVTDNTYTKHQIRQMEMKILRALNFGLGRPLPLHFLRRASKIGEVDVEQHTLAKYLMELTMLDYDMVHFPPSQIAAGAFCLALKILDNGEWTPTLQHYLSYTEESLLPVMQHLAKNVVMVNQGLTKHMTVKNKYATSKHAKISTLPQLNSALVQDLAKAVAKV

[10] = biological target: CDK6/cyclin D3 (Homo sapiens, UniProt Q00534); test: (§2) Inhibition of human CDK6/cyclinD3 using Histone H1 as substrate in presence of [gamma-33P]ATP after 40 mins by scintillation counter method; type: protein-complex assay
Chain of CDK6/cyclin D3 (Homo sapiens, UniProt Q00534) (P30281 whole entry): as the sequence (P30281 whole entry, further chain) above
Chain of CDK6/cyclin D3 (Homo sapiens, UniProt Q00534) (Q00534 whole entry): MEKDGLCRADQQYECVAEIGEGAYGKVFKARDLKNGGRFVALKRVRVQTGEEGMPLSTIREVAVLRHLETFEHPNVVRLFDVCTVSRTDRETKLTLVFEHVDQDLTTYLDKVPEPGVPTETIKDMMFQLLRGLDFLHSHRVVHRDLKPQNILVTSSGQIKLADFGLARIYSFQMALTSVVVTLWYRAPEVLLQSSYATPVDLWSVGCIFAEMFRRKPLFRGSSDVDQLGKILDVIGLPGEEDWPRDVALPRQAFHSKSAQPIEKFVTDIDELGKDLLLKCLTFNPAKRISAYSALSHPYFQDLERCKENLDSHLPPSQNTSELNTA

[11] = biological target: Dual specificity protein kinase CLK3 (Homo sapiens, UniProt P49761); test: Inhibition of human CLK3 using ERMRPRKRQGSVRRRV as substrate in presence of [gamma-33P]ATP after 40 mins by scintillation counter method
Chain of Dual specificity protein kinase CLK3 (P49761 whole entry): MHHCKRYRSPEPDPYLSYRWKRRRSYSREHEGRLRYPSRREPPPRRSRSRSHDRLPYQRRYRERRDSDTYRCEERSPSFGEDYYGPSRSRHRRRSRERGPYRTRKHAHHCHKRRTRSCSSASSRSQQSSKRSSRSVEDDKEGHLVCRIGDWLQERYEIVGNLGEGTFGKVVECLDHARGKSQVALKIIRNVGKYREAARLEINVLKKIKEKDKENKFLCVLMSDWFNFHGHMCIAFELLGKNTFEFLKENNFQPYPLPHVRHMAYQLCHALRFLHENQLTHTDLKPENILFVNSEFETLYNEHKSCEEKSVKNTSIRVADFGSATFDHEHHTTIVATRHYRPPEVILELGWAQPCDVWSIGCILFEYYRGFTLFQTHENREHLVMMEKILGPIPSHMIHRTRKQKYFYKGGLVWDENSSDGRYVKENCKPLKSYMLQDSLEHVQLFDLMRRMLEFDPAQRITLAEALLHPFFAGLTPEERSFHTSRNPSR

[12] = biological target: CDK4/Cyclin D3 (Homo sapiens, UniProt P11802+P30281); test: as §1; type: protein-complex assay
Chain of CDK4/Cyclin D3 (Homo sapiens, UniProt P11802+P30281) (P11802 whole entry): as the sequence (P11802 whole entry) above
Chain of CDK4/Cyclin D3 (Homo sapiens, UniProt P11802+P30281) (P30281 whole entry): as the sequence (P30281 whole entry, further chain) above

[13] = biological target: CDK6/cyclin D3 (Homo sapiens, UniProt P30281+Q00534); test: as §2; type: protein-complex assay
Chain of CDK6/cyclin D3 (Homo sapiens, UniProt P30281+Q00534) (P30281 whole entry): as the sequence (P30281 whole entry, further chain) above
Chain of CDK6/cyclin D3 (Homo sapiens, UniProt P30281+Q00534) (Q00534 whole entry): as the sequence (Q00534 whole entry) above

[14] = biological target: T1, Dual specificity protein kinase CLK1; test: Inhibition of CLK mediated SF3B1 activation in human Rh-18 cells assessed as MDM2-pre mRNA exon skipping at 10 uM after 8 hrs by RT-PCR method; type: cell-based
Target sequence in this assay (P49759 whole entry, looked up): as the sequence (P49759 whole entry) above

COC(=O)c1c(/C(C#N)=C\N)c2ccc(Cl)c(Cl)c2n1C
EC50 ([1]; read-out: EC50): 8000 nM | inhibition [2]: Active

CCN1/C(=C/C(C)=O)Sc2ccc(Cl)cc21
inhibition [2]: inactive

CC(=O)Oc1ccc(/C=C/c2cc(OC(C)=O)cc(OC(C)=O)c2)cc1
Activity [2]: 17%

CC(C)n1cnc2c(Nc3cc(N)cc(Cl)c3)nc(N[C@H]3CCNC3)nc21
EC50 ([1]; read-out: EC50): 12000 nM

CC(C)n1cnc2c(Nc3cc(N)cc(Cl)c3)nc(N[C@H]3CCCC[C@H]3N)nc21
EC50 ([1]; read-out: EC50): 18700 nM

COCCNc1nc(Nc2cccc(Cl)c2)c2ncn(C(C)C)c2n1
EC50 [1]: Not Active | solubility [3]: Insoluble

CC(C)n1cnc2c(Nc3cc(N)cc(Cl)c3)nc(N[C@H]3CCCNC3)nc21
EC50 ([1]; read-out: EC50): 12900 nM

COc1ccc2c(C)nc(Nc3nc(C)c(C)c(=O)[nH]3)nc2c1
EC50 [4]: 20000 nM

C#CCCCCCCCCCCC(=O)CC(O)COC(C)=O (centres undefined)
Activity [2]: 14%

CC(=O)Nc1cc(Cl)cc(Nc2nc(N[C@H]3CCCC[C@H]3N)nc3c2ncn3C(C)C)c1
EC50 ([1]; read-out: EC50): 17500 nM

CC(=O)Nc1cc(Cl)cc(Nc2nc(N[C@@H]3CCCC[C@@H]3N)nc3c2ncn3C(C)C)c1 (racemic) [listing 1 of 2 here]
EC50 ([1]; read-out: EC50): 8100 nM | IC50 [5]: 19 nM | IC50 [6]: 13 nM | IC50 [7]: 64 nM | IC50 [8]: 930 nM

CC(=O)Nc1cc(Cl)cc(Nc2nc(N[C@@H]3CCCC[C@@H]3N)nc3c2ncn3C(C)C)c1
EC50 ([1]; read-out: EC50): 7300 nM | IC50 [9]: > 1000 nM | IC50 [10]: > 1000 nM

CC(C)n1cnc2c(Nc3cccc(Cl)c3)nc(N[C@@H]3CCCC[C@H]3N)nc21
EC50 ([1]; read-out: EC50): 4500 nM | fold change (FC) [2]: > 3

CC(C)n1cnc2c(Nc3cccc(Cl)c3)nc(N[C@H]3CCCC[C@H]3N)nc21
EC50 ([1]; read-out: EC50): 12200 nM | fold change (FC) [2]: > 3

CCn1cnc2c(Nc3cccc(Cl)c3)nc(N[C@H]3CCCC[C@@H]3N)nc21
EC50 ([1]; read-out: EC50): 22000 nM | fold change (FC) [2]: > 3

CC1=Nc2ccc(Cl)cc2S(=O)(=O)N1
Activity [2]: 11%

CC(/C=C/[C@@H]1C[C@]2(CO2)CC(C)(C)O1)=C\C[C@H]1CC[C@@H](NC(=O)/C=C\[C@H](C)OC(=O)N(C)C)CC1
inhibition [2]: Active

COc1ccc2c(C)nc(Nc3nc(C)c(C)c(O)n3)nc2c1
inhibition [2]: inactive

CC(=O)Nc1cc(Cl)cc(Nc2nc(N[C@@H]3CCCC[C@@H]3N)nc3c2ncn3C(C)C)c1 (racemic) [listing 2 of 2 here]
fold change (FC) [2]: > 3

CCn1cnc2c(Nc3cccc(Cl)c3)nc(N[C@@H]3CCCC[C@@H]3NC(C)=O)nc21 (racemic)
EC50 [1]: Not Active | IC50 [5]: > 1000 nM

CCn1cnc2c(Nc3cccc(Cl)c3)nc(N[C@@H]3CCCC[C@H]3N)nc21
EC50 ([1]; read-out: EC50): 7800 nM | fold change (FC) [2]: > 3

CC(C)n1cnc2c(Nc3cc(N)cc(Cl)c3)nc(N[C@@H]3CCCC[C@@H]3N)nc21
EC50 ([1]; read-out: EC50): 3000 nM | IC50 [11]: > 1000 nM | IC50 [9]: 532 nM | IC50 [12]: > 1000 nM | IC50 [13]: > 1000 nM

CNC(=O)O[C@@H](C)/C=C\C(=O)N[C@H]1CC[C@@H](C/C=C(C)/C=C/[C@@H]2C[C@]3(CO3)CC(C)(C)O2)CC1
EC50 ([1]; read-out: EC50): 800 nM

CC(C)n1ccc2c(Nc3cccc(Cl)c3)nc(N[C@H]3CCCC[C@H]3N)nc21 (racemic)
IC50 [5]: > 1000 nM | inhibition [2]: inactive

CC(C)[C@H](CO)Nc1nc(Nc2cc(N)cc(Cl)c2)c2ncn(C(C)C)c2n1 [AMINOPURVALANOL]
EC50 ([1]; read-out: EC50): 12000 nM | inhibition [14]: Active

CC(C)n1cnc2c(Nc3cc(N)cc(Cl)c3)nc(N[C@@H]3CCCC[C@@H]3N)nc21 (racemic)
EC50 ([1]; read-out: EC50): 6500 nM | IC50 [5]: 18 nM | IC50 [6]: 16 nM | IC50 [11]: > 1000 nM | IC50 [7]: 54 nM | IC50 [9]: 973 nM | IC50 [8]: > 1000 nM | IC50 [10]: > 1000 nM

CC(C)n1cnc2c(Nc3cc(N)cc(Cl)c3)nc(N[C@H]3CCCC[C@@H]3N)nc21
EC50 ([1]; read-out: EC50): 23500 nM

CC(C)n1cnc2c(Nc3cc(N)cc(Cl)c3)nc(N[C@@H]3CCCC[C@H]3N)nc21
EC50 ([1]; read-out: EC50): 9700 nM

Clc1cccc(Nc2nnc(-c3ccccc3)c3ccccc23)c1
Activity [2]: 11%

CC(C)n1cnc2c(Nc3cc(N)cc(Cl)c3)nc(N[C@@H]3CCNC3)nc21
EC50 ([1]; read-out: EC50): 26400 nM

COc1ccc2c(c1)/C(=C/c1cnc[nH]1)C(=O)N2
Activity [2]: 53%

O=C(O)COc1ccc(Cl)cc1Cl
Activity [2]: 21%

CCn1cnc2c(Nc3cccc(Cl)c3)nc(N[C@@H]3CCCC[C@@H]3N)nc21 (racemic)
EC50 ([1]; read-out: EC50): 4200 nM | inhibition [14]: Active | IC50 [5]: 148 nM | IC50 [6]: 111 nM | IC50 [11]: > 1000 nM | IC50 [7]: 104 nM | IC50 [9]: 382 nM | IC50 [8]: 573 nM | IC50 [10]: > 1000 nM | fold change (FC) [2]: > 3

CC(C)n1cnc2c(Nc3cc(N)cc(Cl)c3)nc(N[C@@H]3CCCNC3)nc21
EC50 ([1]; read-out: EC50): 14000 nM
